Columns and labels:
[1] = test system: human nasopharyngeal cancer cell line KB; test: Test (b): in vitro inhibition of EGF-stimulated growth of KB cells (MTT); assay type: cell-based; conditions: EGF 10 ng/ml
Description: (b) In vitro assay for measuring the effect of a test compound in inhibiting growth of human nasopharyngeal cancer cell line KB by EGF-stimulation
KB cells were seeded into wells at a density of 1×10^4 to 1.5×10^4 cells per well and grown in DMEM supplemented with 5% FCS (charcoal-stripped) for 24 hours. After incubation for 3 days, cell growth was determined based on the extent of blue color occurrence, which was produced by metabolizing a MTT tetrazolium dye. Subsequently, cell growth was determined in the presence of EGF (10 ng/ml) or in the presence of EGF (10 ng/ml) and a test compound within a predetermined concentration range. Then, an IC50 value could be calculated.

[2] = test system: liver cell growth stimulation induced by growth factor TGFα; test: Test (c): in vivo inhibition of liver cell growth stimulation induced by TGFα (BrdU uptake); conditions: Rattus norvegicus; male rats, oral, inhibition of liver cell proliferation by BrdU uptake, approximate ED50
Description: (c) In vivo assay for measuring the effect of a test compound (usually, ball-milled, prepared as a suspension in 0.5% polysorbate, and orally administered) in inhibiting liver cell growth stimulation induced by administration of growth factor TGFα (subcutaneous administration of 400 μg/kg, i.e., twice a usual dose, 3 hours and 7 hours respectively after administration of the test compound) in a group of male rats
In a control group of rats, administration of TGFα causes liver cell growth stimulation as large as on average 5 times.
Cell growth of control animals and test animals was measured in accordance with the following manner:
On the morning of the day after a test compound (or 0.5% polysorbate in a control group) was administered, bromodeoxyuridine (BrdU; intraperitoneally 100 mg/kg) was administered to animals. Four hours later, the animals were killed and the livers were excised out. Slices were cut out from each liver, and BrdU uptake was measured in the same manner as in conventional immunohistological techniques described below:
To calculate an approximate ED50 value on inhibition of liver cell proliferation measured by inhibition of BrdU uptake, tests were further performed using the test compound within a predetermined dose range.

[3] = target: T1, EGF receptor tyrosine kinase (Homo sapiens, UniProt P00533); test: Test (a): in vitro inhibition of the enzyme EGF receptor tyrosine kinase; assay type: biochemical; conditions: receptor tyrosine kinase partially purified from A-431 cells, EGF-stimulated
T1 construct: Receptor tyrosine kinase was obtained from A-431 cells (derived from human vulval carcinoma) in partially purified form; endogenous in cells; host or cells: A-431 cells (human vulval carcinoma); solubilised membrane preparation
Description: (a) In vitro assay for measuring the effect of a test compound in inhibiting the enzyme EGF receptor tyrosine kinase
Receptor tyrosine kinase was obtained from A-431 cells (derived from human vulval carcinoma) in partially purified form by a method relevant to a method shown in Carpenter et al., J. Biol. Chem., 1979, 254, 4884, Cohen et. al., J. Biol. Chem., 1982, 257, 1523, and Braun et al., J. Biol. Chem., 1984, 259, 2051.
A-431 cells were grown in Dulbecco's modified Eagle's medium (DMEM) containing 5% fetal calf serum (FCS) up to a confluent state. The resultant cells were homogenized in a hypotonic borate/EDTA buffer (pH 10.1). The homogenate was centrifuged at 400×g for 10 minutes at 0° C. to 4° C. […]
The test compound/EGF mixture solution (5 μl) was added to the test enzyme solution (10 μl) and the mixture was incubated at 0° C. to 4° C. for 30 minutes. […] Radioactivity present in the paper-filter was measured by a liquid scintillation counter (Sequence A). […] Receptor tyrosine kinase inhibition was indicated by inhibition ratio (%), which was calculated in accordance with the following equation, provided that the measurement results of sequence A is expressed by SA, the measurement results of sequence B by SB, and the measurement results of sequence C by SC. […] Subsequently, within a concentration range of a test compound providing IC50 value, the extent of inhibition was determined.

[4] = test system: xenografts of the human vulval epidermoid carcinoma cell line A-431; test: Test (d): in vivo inhibition of growth of A-431 xenografts in athymic nude mice; conditions: tumor volume vs untreated control, dose of 50 mg/day/weight (kg), oral, once per day
Description: (d) In vivo assay on a group of athymic nude mice (strain ONU: Alpk) for determining the effect of a test compound (usually, ball-milled, prepared as a suspension in 0.5% polysorbate, and orally administered) in inhibiting the growth of xenografts of the human vulval epidermoid carcinoma cell line A-431
A-431 cells were maintained in a cultured product in DMEM having 5% FCS and 2 mM glutamine supplemented thereto. Freshly cultured cells were harvested by trypsinization and subcutaneously injected into both flanks of each of many donor nude mice (10000000 cells/0.1 ml/mouse). When a sufficient amount of tumorigen was obtained (about 9 to 14 days later), fragments of tumor tissue were transplanted in the flanks of recipient nude mice (test day 0). […] To these groups of mice, administration of the test compound was commenced. The test compound was administered once per day continuously for 13 days in total (including test day 7 to 19). In some tests, administration of the test compound was continued beyond test day 19, for example, to test day 26. In each case, the animals were killed on the following day and final tumor volume was calculated from the measurement values of the length and width of the tumors. The suppression percentage was calculated from the resultant tumor volume based on the control (untreated).

T1 sequence (P00533 25-1210): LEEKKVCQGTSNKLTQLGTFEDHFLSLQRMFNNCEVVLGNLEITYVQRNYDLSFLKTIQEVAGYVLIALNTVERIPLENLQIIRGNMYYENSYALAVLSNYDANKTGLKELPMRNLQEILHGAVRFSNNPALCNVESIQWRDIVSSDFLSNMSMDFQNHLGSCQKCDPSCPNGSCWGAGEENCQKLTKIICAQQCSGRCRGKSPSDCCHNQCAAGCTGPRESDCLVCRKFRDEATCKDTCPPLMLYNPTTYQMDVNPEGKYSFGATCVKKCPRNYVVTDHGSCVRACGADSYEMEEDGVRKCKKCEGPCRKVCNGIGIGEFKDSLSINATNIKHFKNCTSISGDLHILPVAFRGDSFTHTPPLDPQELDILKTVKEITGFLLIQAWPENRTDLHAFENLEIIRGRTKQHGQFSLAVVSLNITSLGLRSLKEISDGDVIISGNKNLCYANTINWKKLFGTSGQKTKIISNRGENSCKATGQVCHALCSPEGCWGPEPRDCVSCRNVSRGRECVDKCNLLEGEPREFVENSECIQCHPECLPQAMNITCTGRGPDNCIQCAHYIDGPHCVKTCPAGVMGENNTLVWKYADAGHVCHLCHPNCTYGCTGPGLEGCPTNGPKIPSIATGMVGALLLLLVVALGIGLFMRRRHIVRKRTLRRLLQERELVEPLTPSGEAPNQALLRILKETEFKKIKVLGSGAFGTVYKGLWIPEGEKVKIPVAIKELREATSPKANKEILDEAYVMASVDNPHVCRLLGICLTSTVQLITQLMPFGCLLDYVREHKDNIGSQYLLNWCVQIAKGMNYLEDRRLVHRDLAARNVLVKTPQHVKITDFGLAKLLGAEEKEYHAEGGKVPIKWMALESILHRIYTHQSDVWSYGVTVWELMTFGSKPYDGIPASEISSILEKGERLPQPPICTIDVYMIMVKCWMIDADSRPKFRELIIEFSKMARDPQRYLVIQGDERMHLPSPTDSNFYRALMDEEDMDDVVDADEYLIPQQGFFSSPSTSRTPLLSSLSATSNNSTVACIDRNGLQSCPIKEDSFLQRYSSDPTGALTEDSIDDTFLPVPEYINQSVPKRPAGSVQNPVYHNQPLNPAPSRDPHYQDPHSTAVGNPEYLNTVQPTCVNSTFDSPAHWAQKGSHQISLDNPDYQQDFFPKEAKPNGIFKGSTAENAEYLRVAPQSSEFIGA
T1 sequence (P01133 971-1023 partner limits assumed): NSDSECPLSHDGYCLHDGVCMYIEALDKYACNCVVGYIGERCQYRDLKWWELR

| SMILES | IC50 [1] | ED50 [2] | IC50 [3] | suppression rate in Test (d) [4] |
| --- | --- | --- | --- | --- |
| CCOC(=O)c1ccc(CNc2ncnc(C)c2C#Cc2ccc(C(F)(F)F)cc2)o1 [Compound No. 1, Ethyl 5-{6-methyl-5-{[4-(trifluoromethyl)phenyl]ethynyl}pyrimidin-4-ylaminomethyl}-2-furancarboxylate] | 0.8 µM | < 12.1 mg/kg | 0.24 µM | 68% |
| COC(=O)c1ccc(CNc2ncnc(C)c2C#Cc2ccc(C(F)(F)F)cc2)o1 [Compound No. 2, Methyl 5-(6-methyl-5-{[4-(trifluoromethyl)phenyl]ethynyl}pyrimidin-4-ylaminomethyl)-2-furancarboxylate] | 0.7 µM | < 11.8 mg/kg | 0.22 µM | 69% |

— patent publication US8895565B2, “Heterocyclic compound and use of the same” (priority 2009, dated 2014)
